Measured values as given in ChEMBL document CHEMBL5291721, “A preclinical secondary pharmacology resource illuminates target-adverse drug reaction associations of marketed drugs” (Nat Commun, 2023).

Experiments:
Progesterone receptor = biological target: T1, Progesterone receptor (Homo sapiens, UniProt P06401); assay type: functional
T1 sequence (P06401 whole entry): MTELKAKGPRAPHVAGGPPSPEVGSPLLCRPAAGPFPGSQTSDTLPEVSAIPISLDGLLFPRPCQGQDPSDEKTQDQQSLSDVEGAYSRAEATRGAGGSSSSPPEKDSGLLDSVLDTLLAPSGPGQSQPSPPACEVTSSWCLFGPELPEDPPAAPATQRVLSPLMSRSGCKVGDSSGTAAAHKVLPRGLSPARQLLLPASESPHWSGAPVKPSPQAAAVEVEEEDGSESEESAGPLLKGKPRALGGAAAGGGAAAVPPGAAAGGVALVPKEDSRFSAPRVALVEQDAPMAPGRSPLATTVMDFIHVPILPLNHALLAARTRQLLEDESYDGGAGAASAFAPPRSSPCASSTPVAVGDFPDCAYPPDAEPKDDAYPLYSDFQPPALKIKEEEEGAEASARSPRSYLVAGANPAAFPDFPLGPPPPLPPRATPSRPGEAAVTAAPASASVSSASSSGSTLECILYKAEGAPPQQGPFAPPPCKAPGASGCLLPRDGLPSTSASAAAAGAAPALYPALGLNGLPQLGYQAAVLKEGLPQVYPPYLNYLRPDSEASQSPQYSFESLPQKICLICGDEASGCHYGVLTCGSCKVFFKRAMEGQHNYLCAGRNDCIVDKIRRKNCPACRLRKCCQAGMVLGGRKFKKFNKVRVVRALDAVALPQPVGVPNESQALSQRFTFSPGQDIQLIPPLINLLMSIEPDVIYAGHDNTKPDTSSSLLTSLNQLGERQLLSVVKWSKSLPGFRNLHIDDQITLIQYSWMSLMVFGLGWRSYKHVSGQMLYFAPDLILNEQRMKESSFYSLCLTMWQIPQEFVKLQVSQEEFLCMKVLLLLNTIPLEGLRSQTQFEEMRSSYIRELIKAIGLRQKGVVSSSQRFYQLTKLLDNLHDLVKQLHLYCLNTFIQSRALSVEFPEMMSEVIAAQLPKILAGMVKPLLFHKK

Histamine H3 receptor = Histamine H3 receptor (Homo sapiens, UniProt Q9Y5N1)
Histamine H3 receptor, sequence (Q9Y5N1 whole entry): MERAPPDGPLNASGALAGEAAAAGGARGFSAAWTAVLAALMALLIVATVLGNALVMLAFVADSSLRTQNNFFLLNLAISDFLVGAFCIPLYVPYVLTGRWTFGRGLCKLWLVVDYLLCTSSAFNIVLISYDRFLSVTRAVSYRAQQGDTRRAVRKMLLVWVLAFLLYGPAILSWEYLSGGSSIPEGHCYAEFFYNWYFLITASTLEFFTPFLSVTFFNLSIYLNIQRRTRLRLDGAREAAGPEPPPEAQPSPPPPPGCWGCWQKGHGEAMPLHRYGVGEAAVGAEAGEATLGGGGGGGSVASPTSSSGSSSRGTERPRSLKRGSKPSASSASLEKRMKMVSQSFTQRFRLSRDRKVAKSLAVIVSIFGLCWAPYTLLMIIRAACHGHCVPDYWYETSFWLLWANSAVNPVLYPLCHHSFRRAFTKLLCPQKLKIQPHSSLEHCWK

Estrogen receptor = biological target: T2, Estrogen receptor (Homo sapiens, UniProt P03372)
T2 sequence (P03372 whole entry): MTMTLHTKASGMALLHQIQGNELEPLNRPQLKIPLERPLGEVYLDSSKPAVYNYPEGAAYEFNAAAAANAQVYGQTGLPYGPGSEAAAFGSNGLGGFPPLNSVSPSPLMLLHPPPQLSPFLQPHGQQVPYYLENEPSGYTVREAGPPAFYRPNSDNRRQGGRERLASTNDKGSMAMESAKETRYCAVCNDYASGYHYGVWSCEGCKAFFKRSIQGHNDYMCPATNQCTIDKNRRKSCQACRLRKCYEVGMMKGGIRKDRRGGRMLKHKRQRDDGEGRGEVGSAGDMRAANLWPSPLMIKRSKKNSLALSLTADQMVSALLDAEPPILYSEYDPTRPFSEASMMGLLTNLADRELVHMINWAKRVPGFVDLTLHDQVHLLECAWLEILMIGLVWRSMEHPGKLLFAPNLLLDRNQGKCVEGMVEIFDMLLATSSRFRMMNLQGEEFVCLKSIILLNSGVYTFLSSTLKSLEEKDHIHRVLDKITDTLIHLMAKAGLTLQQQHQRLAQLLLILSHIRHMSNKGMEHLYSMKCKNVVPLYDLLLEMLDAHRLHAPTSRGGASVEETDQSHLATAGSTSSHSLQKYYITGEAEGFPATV

Mu-type opioid receptor = Mu-type opioid receptor (Homo sapiens, UniProt P35372); test: biochemical; assay type: functional
Mu-type opioid receptor, sequence (P35372 whole entry): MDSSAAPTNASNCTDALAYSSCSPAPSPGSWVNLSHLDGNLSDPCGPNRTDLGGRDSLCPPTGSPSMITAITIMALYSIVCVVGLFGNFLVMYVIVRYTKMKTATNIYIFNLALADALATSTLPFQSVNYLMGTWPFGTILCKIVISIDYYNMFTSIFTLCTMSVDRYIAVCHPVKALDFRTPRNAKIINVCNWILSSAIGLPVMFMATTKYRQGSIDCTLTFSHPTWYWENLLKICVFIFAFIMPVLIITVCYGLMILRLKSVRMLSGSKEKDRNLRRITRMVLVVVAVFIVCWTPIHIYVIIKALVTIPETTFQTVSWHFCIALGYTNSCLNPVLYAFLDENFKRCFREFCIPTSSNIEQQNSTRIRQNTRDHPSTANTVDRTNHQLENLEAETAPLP

[1] = biological target: T3, Alpha-2B adrenergic receptor (Homo sapiens, UniProt P18089)
T3 sequence (P18089 whole entry): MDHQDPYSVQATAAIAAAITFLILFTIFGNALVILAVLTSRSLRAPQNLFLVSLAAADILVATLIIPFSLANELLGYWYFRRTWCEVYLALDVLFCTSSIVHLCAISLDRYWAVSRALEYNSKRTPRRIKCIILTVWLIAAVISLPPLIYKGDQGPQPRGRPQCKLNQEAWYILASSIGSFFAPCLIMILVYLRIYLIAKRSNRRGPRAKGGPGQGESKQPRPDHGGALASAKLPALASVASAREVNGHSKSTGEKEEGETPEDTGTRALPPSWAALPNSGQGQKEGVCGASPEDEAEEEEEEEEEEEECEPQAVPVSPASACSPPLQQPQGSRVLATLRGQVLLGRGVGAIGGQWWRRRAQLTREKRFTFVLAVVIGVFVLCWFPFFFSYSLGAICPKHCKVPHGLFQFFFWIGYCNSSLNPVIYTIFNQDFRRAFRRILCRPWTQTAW

[2] = biological target: 5-hydroxytryptamine receptor 2A (Homo sapiens, UniProt P28223); assay type: functional, cell-based
5-hydroxytryptamine receptor 2A, sequence (P28223 whole entry): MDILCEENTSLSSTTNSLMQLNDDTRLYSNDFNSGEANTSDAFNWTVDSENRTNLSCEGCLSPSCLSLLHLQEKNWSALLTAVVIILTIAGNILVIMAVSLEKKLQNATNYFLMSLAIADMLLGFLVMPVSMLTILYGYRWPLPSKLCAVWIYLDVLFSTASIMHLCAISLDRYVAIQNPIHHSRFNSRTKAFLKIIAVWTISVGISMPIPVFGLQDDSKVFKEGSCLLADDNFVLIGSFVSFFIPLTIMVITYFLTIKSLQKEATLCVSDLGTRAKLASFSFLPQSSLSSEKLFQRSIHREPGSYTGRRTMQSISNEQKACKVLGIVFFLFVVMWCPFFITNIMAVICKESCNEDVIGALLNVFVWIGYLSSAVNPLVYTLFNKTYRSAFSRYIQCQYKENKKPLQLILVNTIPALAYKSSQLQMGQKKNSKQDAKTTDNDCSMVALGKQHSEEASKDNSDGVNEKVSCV

[3] = biological target: T4, Alpha-2C adrenergic receptor (Homo sapiens, UniProt P18825); assay type: functional
T4 sequence (P18825 whole entry): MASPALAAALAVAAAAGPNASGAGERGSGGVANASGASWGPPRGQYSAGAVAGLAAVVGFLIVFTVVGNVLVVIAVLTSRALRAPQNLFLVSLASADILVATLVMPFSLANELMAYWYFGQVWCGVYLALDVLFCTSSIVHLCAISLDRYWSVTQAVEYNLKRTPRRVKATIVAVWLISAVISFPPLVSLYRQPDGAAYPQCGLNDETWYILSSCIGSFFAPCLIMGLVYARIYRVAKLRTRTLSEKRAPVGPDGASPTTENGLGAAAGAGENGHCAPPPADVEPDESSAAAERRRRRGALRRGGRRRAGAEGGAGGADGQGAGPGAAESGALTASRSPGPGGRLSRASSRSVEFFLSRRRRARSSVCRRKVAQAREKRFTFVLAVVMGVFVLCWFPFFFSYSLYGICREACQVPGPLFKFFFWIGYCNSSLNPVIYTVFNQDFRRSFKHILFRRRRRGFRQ
Also: assay procedure not described here.

Structure (SMILES) | AC50 (Progesterone receptor) | AC50 (Histamine H3 receptor) | AC50 (Estrogen receptor) | AC50 (Mu-type opioid receptor) | AC50 [1] | AC50 [2] | AC50 [3]
O=C(O)c1ccccc1OP(=O)(O)O [FOSFOSAL] | > 30 µM | > 30 µM | > 30 µM | > 30 µM | > 30 µM | > 30 µM | > 30 µM
CCN(CC)C(=O)C1CN2CCc3cc(OC)c(OC)cc3C2CC1OC(C)=O (stereo unspecified) [BENZQUINAMIDE] | > 30 µM | > 30 µM | > 30 µM | > 30 µM | 1.03 µM | > 30 µM | 1.7 µM
CO[C@@]1(NC(=O)Cc2cccs2)C(=O)N2C(C(=O)O)=C(COC(N)=O)CS[C@@H]21 [CEFOXITIN] | > 30 µM | > 30 µM | > 30 µM | > 30 µM | > 30 µM | > 30 µM | > 30 µM
CCCCC[C@H](O)/C=C/[C@H]1[C@H](O)CC(=O)[C@@H]1C/C=C\CCCC(=O)O [DINOPROSTONE] | > 30 µM | > 30 µM | 23 µM | > 30 µM | > 30 µM | > 30 µM | > 30 µM
CN(c1nccc(=O)[nH]1)C1CCN(c2nc3ccccc3n2Cc2ccc(F)cc2)CC1 [MIZOLASTINE] | > 30 µM | > 30 µM | > 30 µM | > 30 µM | > 30 µM | > 30 µM | > 30 µM
O=C(CCCN1CCC(n2c(O)nc3ccccc32)CC1)c1ccc(F)cc1 [BENPERIDOL] | > 30 µM | 18 µM | > 30 µM | > 30 µM | 0.85 µM | > 30 µM | 1.9 µM
C#C[C@]1(O)CC[C@H]2[C@@H]3CCC4=CC(=O)CCC4=C3C=C[C@@]21CC [GESTRINONE] | 0.1 µM | > 30 µM | 6.1 µM | > 30 µM | > 30 µM | > 30 µM | > 30 µM
CC(NCCc1ccc(O)cc1)C(O)c1ccc(O)cc1 (stereo unspecified) [RITODRINE] | > 30 µM | > 30 µM | > 30 µM | 8.1 µM | > 30 µM | > 30 µM | > 30 µM
